One series deals with HIV-RT. To be noted: preliminary mechanism of action studies; cited from earlier work.
Series [1] in a line: Water solubility analysis by HPLC. In kind it is physicochemical.

Values after ≈ are worked out from the molar mass of the structure shown.

Take `Cc1cc(=O)oc2c3c(ccc12)OC(C)(C)[C@H](OC(=O)[C@@]12CC[C@@](C)(C(=O)O1)C2(C)C)[C@@H]3OC(=O)[C@@]12CC[C@@](C)(C(=O)O1)C2(C)C` [Compound 4-MDCK, 4-methyl DCK]: the “Inhibition of HIV-RT DNA-dependent DNA polymerase activity” value in the series on HIV-RT is “inhibited”.
The molecule `Cc1cc(=O)c2c(C)cc3c(c2o1)[C@@H](OC(=O)[C@@]12CC[C@@](C)(C(=O)O1)C2(C)C)[C@@H](OC(=O)[C@@]12CC[C@@](C)(C(=O)O1)C2(C)C)C(C)(C)O3` [Compound 5, 3′R,4′R-Di-O-(−)-camphanoyl-2,5,2′,2′-tetramethyldihydropyrano[2,3-f]chromone] returned a solubility at 1 h in series [1] of 5.2 µg/mL (≈ 7.99 µM).

A word on the solubility: it is how much of the substance goes into solution per volume. Higher therefore signals a readily soluble substance.

The values above are taken from article PMC2954496 (Bioorganic & medicinal chemistry, 2010).
